Activity calls are given as the source filed them.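 How the source made its calls: active means compounds giving half or more protection of infected cells from virus-caused growth loss, again on retest; inactive means the rest.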
System: CEM cells HIV-1 protection, formazan growth assay
Test: NCI AIDS Antiviral Assay
Conditions: for IC50: measured here: growth of uninfected CEM cells
How it was run: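 CEM (human) cells, HIV-1 infected vs uninfected, 5-point dosing, formazan growth read-out. Retest threshold 50% protection.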

| Structure (SMILES) | EC50 [µM] | IC50 [µM] | outcome |
| --- | --- | --- | --- |
| COc1ccc(-c2cc(-c3ccccc3)c3ccccc3n2)c(OC)c1OC | > 200 | > 200 |  |
| O=C(O)CN(CC(=O)O)Cc1ccn(-c2cccc(-n3ccc(CN(CC(=O)O)CC(=O)O)n3)n2)n1 | > 200 | > 200 |  |
| Clc1ccc(OCc2nnc(CCCCCCCCc3nnc(COc4ccc(Cl)cc4Cl)o3)o2)c(Cl)c1 | > 200 | 129 |  |
| NCCCCNc1ccc2c(=O)[nH][nH]c(=O)c2c1 |  |  | inactive |
| O=[N+]([O-])c1ccc2c(c1)OCCOCCOc1ccc([N+](=O)[O-])cc1OCCOCCO2 |  |  | inactive |
| CCC(C)C(N)CO (stereo not given) | > 200 | > 200 |  |
| N#C/C(=C\c1cc(Cl)cc(Cl)c1O)c1ccc([N+](=O)[O-])cc1 | > 100 | 14.1 |  |
| O=c1oc2c3c4c(cc2c2c1CCC2)CCCN4CCC3 | > 6.76 | > 6.76 |  |
| CCCCCCCCCCCCC1C(=O)NCCNCCCNCCNC1=O | > 200 | 10 |  |
| O=C(/C=C/NC(=O)OCc1ccccc1)OCc1ccccc1 | > 200 | > 200 |  |
| CCOc1ccc(-n2c(=O)n3c(Nc4ccc(Cl)cc4)nc4c(c(=O)n(C)c(=O)n4C)n3c2=O)cc1 | > 100 | 66.1 |  |
| CC(C)(CN1CCCCC1)C(=O)/C=C/c1c(Cl)cccc1Cl | > 200 | 1.86 |  |
| N#CC(C#N)=C1CCCS(=O)(=O)c2ccccc21 | > 200 | > 200 |  |
| CN(Cc1cnc2nc(N)nc(N)c2n1)c1ccc(C(=O)NC(CCC(=O)O)C(=O)O)c2ccccc12 (stereo not given) | > 0.2 | 0.00219 |  |
| C=C(C)C1CCC2(C(=O)O)CCC3(C)C(CCC4C5(C)CCC(O)C(C)(C)C5CCC43C)C12 (stereo not given) | > 200 | 66.1 |  |
| CC1(Cl)C2c3ccccc3C(c3ccccc32)C1(C)Cl (stereo not given) | > 24 | > 24 |  |
| CCOC(=O)C1=CC(C(C)CC(=O)CC(=O)O)CC1 (stereo not given) |  |  | active |
| COc1cc2ccc3c4cc(OC)c(OC(C)C)cc4c[n+](C)c3c2cc1OC | > 178 | 174 |  |
| N#Cc1ccc(SSc2ccc(C#N)cc2)cc1 | > 200 | 9.55 |  |

| Structure (SMILES) | EC50 [µM] | IC50 [µM] | outcome |
| --- | --- | --- | --- |
| COC(=O)Nc1cn2c(n1)SCC2 | > 200 | > 200 |  |
| CCOC(=O)c1ccccc1NN1C(=O)C=CC1=O | > 347 | 52.5 |  |
| CCCCCCCCCCCCCCOCCS(=O)(=O)O | > 200 | 52.5 |  |
| O=C1C2C3C=C4c5ccccc5N(c5ccccc5)C4(C2C(=O)N1c1ccc(Br)cc1)[C@H]1C(=O)N(c2ccc(Br)cc2)C(=O)[C@@H]31 (stereo not given in full) | > 5.25 | > 5.25 |  |
| COc1ccc2cc(-c3ccc(OC)c(OC)c3)c(=O)oc2c1 | > 200 | > 200 |  |
| CC[N+]1(C)CCC(O)(c2ccc(C)cc2)C(C(=O)c2ccc(C)cc2)C1 (stereo not given) | > 200 |  |  |
| COC(=O)/C(=C\Nc1cccc(C)n1)S(=O)(=O)c1ccc(C)cc1 | > 200 | 66.1 |  |
| Clc1ccc(C(c2ccc(Cl)cc2)c2cncnc2)cc1 |  |  | inactive |
| N#Cc1c(NCCc2ccc(F)cc2)c2ccccc2n2c1nc1ccccc12 | 11 | > 200 |  |
| O=C(/C=C/c1ccc([N+](=O)[O-])cc1)c1nc2ccccc2[nH]1 | > 200 | 4.37 |  |
| Cc1cn(C2C[C@H]3ONC[C@H]3O2)c(=O)[nH]c1=O (stereo not given in full) | > 200 | > 200 |  |
| Cc1ccc2c(c1)sc1nncn12 | > 100 | > 100 |  |
| C=CCOC(=O)Cn1cnc2c(N)ncnc21 | > 200 | > 200 |  |
| c1ccc(CN2CCC(Nc3ccccc3)(c3nnnn3Cc3ccccc3)CC2)cc1 | > 200 | 33.1 |  |
| O=C(NCCO)c1c(O)c2ccccc2[nH]c1=O | > 200 | > 200 |  |
| S=C(N/N=C\c1ccccn1)N/N=C\c1ccccn1 | > 2 | 0.813 |  |
| NC(=O)c1nnc2ccc(F)cc2c1N | > 200 | 70.8 |  |
| CC1=N/C(=C/c2ccc3c(c2)OCO3)C(=O)O1 | > 155 | 105 |  |
| O=S(=O)(O)SC/C=C\CSS(=O)(=O)O |  |  | inactive |

Source: PubChem BioAssay AID179 (DTP/NCI, 2004)
